Experimental data: paper PMC12598616, “Design and optimization of caspase-1-responsive fluorescent probes for pyroptosis imaging and anti-pyroptosis drug screening” (Chemical Science, 2025)

Experiments:
[1] = test system: Cas-1 in chondrocyte spheroids; assay: Imaging in chondrocyte 3D cell spheroids; format: cell-based; settings: H2O2 2 mM 30, 60, 90 min; FPy1 5 μM; compared with 2D cultures
Method: The decline in chondrocyte function plays a crucial role in the pathogenesis of OA. Inflammasome-mediated chondrocyte pyroptosis has been closely associated with matrix degradation and cartilage degeneration in OA.[38] To model OA in vitro, primary chondrocytes were stimulated with H2O2 (2 mM) for different durations, followed by staining with FPy1 (5 μM) and fluorescence imaging to monitor the progression of pyroptosis under oxidative stress. […] To better mimic the in vivo pathological features of OA, primary chondrocytes were also cultured as three-dimensional spheroids and stimulated with H2O2. […] Furthermore, we evaluated the capability of FPy1 to monitor pyroptosis progression at different stages of OA in a mouse model. […] The pathological manifestations in the corresponding tissues became more pronounced with longer modeling periods, consistent with the fluorescence imaging results obtained using FPy1. […]
Chondrocytes were isolated from articular cartilage and resuspended in 1mL DMEM/F12 medium containing 10 μM ITS-A. A total of […] were counted and transferred into centrifuge tubes. […]
The chondrocytes or 3D cell spheroids were seeded in dishes and cultured overnight. […] Fluorescence imaging was then performed with an excitation of 514 nm, and signals were […]

[2] = test system: activated Cas-1 in primary peritoneal macrophages; assay: High-content screening / fluorescence imaging for caspase-1 modulators in primary peritoneal macrophages; format: cell-based, mouse; settings: LPS then Nig 10 μM 2 h; FPy1 5 μM
Source text: The efficient and rapid discovery of Cas-1 modulators is of significant importance considering the therapeutic potential of Cas-1 in various diseases.[39,40] Therefore, we employed FPy1 to construct a high-content screening system aimed at identifying Cas-1 modulators. The level of activated Cas-1 in cells is influenced by multiple factors. To reduce the impact of factors that affect Cas-1 activation in cells, we utilized the NLRP3 inflammasome-mediated Cas-1 activation model, administering the drug during the second stage where the zymogen was converted into activated Cas-1. MCC950, a selective NLRP3 inflammasome inhibitor that could suppress Cas-1 activation, was selected as the positive drug.[41] […] To validate the efficacy of the Cas-1 modulator screening system (Fig. 6a), we first observed the fluorescence images of PMs stained with FPy1 (5 μM) in the control group, model group, and positive drug group. […] Subsequently, the impact of 25 natural products (10 μM) on activated Cas-1 were studied using high-content analysis (Fig. S20). […] To determine whether deoxyshikonin directly binds to Cas-1 and inhibits its activity, we conducted fluorescence detection following co-incubation of deoxyshikonin, FPy1 and Cas-1. […]
Harvested rat discs were fixed in 4 % buffered paraformaldehyde for 24 hours, decalcified in 10 % ethylenediaminetetraacetic acid (EDTA, Solarbio, E8030) solution for 1 month, embedded in paraffin, and sectioned at a thickness of 5 μm. […] Stained sections were evaluated by three independent raters, blinded to the research protocol, and measurements were averaged for statistical analysis. […]
In vivo fluorescence imaging of intervertebral disc degeneration
Twelve rats were modeled with needle puncture-induced intervertebral disc degeneration at the Co5/6, Co6/7 and Co 7/8 levels. […] In vivo fluorescence images were acquired using an in vivo Imaging System (PerkinElmer). […]
In vivo fluorescence imaging of osteoarthritis […]

## –FLTDG– [FPy1, RhoB donor, hNR quencher]
[1]
  fluorescence enhancement in chondrocyte spheroids: more pronounced fluorescence enhancement in chondrocyte spheroids than in two-dimensional cultures
[2]
  fluorescence of FPy1-stained macrophages, model vs control group: significant fluorescence enhancement compared to the control group
